Data from ChEMBL document CHEMBL1158688, “Synthesis and characterization of the 7-(4-aminomethyl-1H-1,2,3-triazol-1-yl) analogue of kabiramide C” (J Nat Prod, 2005).
The source made the active and inactive calls. The calls are words filed in the database; no cut-off is given here.

Organism: Oryctolagus cuniculus
Test: Binding affinity to rabbit Prodan-labeled G-actin

SMILES	Activity
CO[C@H]([C@H](C)/C=C/N(C)C=O)[C@@H](C)C(=O)CC[C@H](C)[C@@H](C[C@@H]1OC(=O)CC(OC(N)=O)C[C@H](C)C[C@@H](N=[N+]=[N-])[C@H](C)[C@@H](OC)c2coc(n2)-c2coc(n2)-c2coc(n2)/C=C/C[C@H](OC)[C@H]1C)OC (stereo partly drawn)	Active
CO[C@H]([C@H](C)/C=C/N(C)C=O)[C@@H](C)C(=O)CC[C@H](C)[C@@H](C[C@@H]1OC(=O)CC(OC(N)=O)C[C@H](C)C[C@@H](n2cc(CN)nn2)[C@H](C)[C@@H](OC)c2coc(n2)-c2coc(n2)-c2coc(n2)/C=C/C[C@H](OC)[C@H]1C)OC (stereo partly drawn)	Active
CO[C@H]([C@H](C)/C=C/N(C)C=O)[C@@H](C)C(=O)CC[C@H](C)[C@@H](C[C@@H]1OC(=O)CC(OC(N)=O)C[C@H](C)C[C@@H](n2cc(CNC(=O)OCC3c4ccccc4-c4ccccc43)nn2)[C@H](C)[C@@H](OC)c2coc(n2)-c2coc(n2)-c2coc(n2)/C=C/C[C@H](OC)[C@H]1C)OC (stereo partly drawn)	Active
